Data reported in ChEMBL document CHEMBL1157275, “Biological activities of 7-epiclusianone” (J Nat Prod, 1999).
≈ marks a conversion by molar mass, not a printed value. Calls of active or inactive are those of the source. The rule behind the calls is not given here.

How the values were obtained:
[1] = tested on: Trypanosoma cruzi; assay: Antitrypanosomal activity against Trypanosoma cruzi Y trypomastigotes infected in Swiss albino mouse assessed as reduction in parasitaemia at 500 mg/kg, po after 6 hrs; type: functional, organism-based; set-up: dose 500 mg/kg
[2] = tested on: Trypanosoma cruzi; assay: Antitrypanosomal activity against Trypanosoma cruzi Y trypomastigotes infected in Swiss albino mouse assessed as mortality rate at 100 mg/kg, po daily for 4 days assessed after 6 to 9 days; type: functional, organism-based; set-up: dose 100 mg/kg
[3] = tested on: Trypanosoma cruzi; assay: Antitrypanosomal activity against Trypanosoma cruzi Y trypomastigotes infected in Swiss albino mouse blood assessed as reduction of parasite number at 500 ug/mL after 24 hrs; type: functional; set-up: scale not given: the % may be the effect or the level left
[4] = tested on: Trypanosoma cruzi; assay: Antitrypanosomal activity against Trypanosoma cruzi Y trypomastigotes infected in Swiss albino mouse blood assessed as reduction of parasite number at 250 ug/mL after 24 hrs; type: functional; set-up: scale not given: the % may be the effect or the level left
[5] = tested on: Trypanosoma cruzi; assay: Antitrypanosomal activity against Trypanosoma cruzi Y trypomastigotes infected in Swiss albino mouse blood assessed as reduction of parasite number at 125 ug/mL after 24 hrs; type: functional; set-up: scale not given: the % may be the effect or the level left
[6] = tested on: Clavibacter michiganensis subsp. michiganensis; assay: Antimicrobial activity against Clavibacter michiganensis subsp. michiganensis; type: functional
[7] = tested on: Listeria monocytogenes; assay: Antimicrobial activity against Listeria monocytogenes; type: functional
[8] = tested on: Staphylococcus aureus; assay: Antibacterial activity against Staphylococcus aureus; type: functional
[9] = Toxicity in Artemia salina; type: organism-based; conditions: in vivo
[10] = tested on: Cladosporium sphaerospermum; assay: Antifungal activity against Cladosporium sphaerospermum; type: functional, organism-based
[11] = tested on: Biomphalaria glabrata; assay: Molluscicidal activity against Biomphalaria glabrata at 20 ppm; type: functional, organism-based

SMILES | Activity [1] | Activity [2] | Activity [3] [%] | Activity [4] [%] | Activity [5] [%] | MIC [6] [µg/mL] | IC100 [7] [µg/mL] | IC100 [8] [µg/mL] | LC50 [9] [µM] | Activity [10] | Activity [11]
O=C(Cn1ccnc1[N+](=O)[O-])NCc1ccccc1 | Active | Active |  |  |  |  |  |  |  |  | 
CC(C)=CC[C@H]1C[C@]2(CC=C(C)C)C(=O)C(C(=O)c3ccccc3)=C(O)[C@](CC=C(C)C)(C2=O)C1(C)C | Active | inactive | 92 | 38 | 17 | 4 (≈ 7.96 µM) | 80 | 80 | 49.7 | inactive | inactive
